Experimental data from patent publication US20220041597A1 (FORMA Therapeutics, Inc., priority 2018, published 2022).
pIC50: −log10 of the molar value.

Molecular target: USP9X (Homo sapiens, UniProt Q93008)
Assay: Biochemical Assay for USP9X Inhibition (Ub-Rh110 fluorescence)
Details: Ub-Rh110 25 nM, 30 min preincubation
Procedure: Concentration and incubation times were optimized for the maximal signal-to-background while maintaining initial velocity conditions at a fixed substrate concentration (<<Km). […] To assay plates (pre-stamped with compound) was added 3 μL 2× Enzyme. The enzyme was preincubated for 30 minutes and then treated with 3 μL of 2× Substrate. […] The slope (best fit linear regression) of the five reads was used to normalize for inhibition. For all assays, data are reported as percent inhibition compared with control wells based on the following equation: […], wherein FLU is measured Fluorescence, AveLow is average Fluorescence of no enzyme control (n=64), and AveHigh is average Fluorescence of DMSO control (n=64). IC50 values are determined by curve fitting of the standard 4 parameter logistic fitting algorithm included in the Activity Base software package: IDBS XE Designer Model205. Data are fitted using the Levenburg Marquardt algorithm.

Chain of USP9X (Q93008 whole entry): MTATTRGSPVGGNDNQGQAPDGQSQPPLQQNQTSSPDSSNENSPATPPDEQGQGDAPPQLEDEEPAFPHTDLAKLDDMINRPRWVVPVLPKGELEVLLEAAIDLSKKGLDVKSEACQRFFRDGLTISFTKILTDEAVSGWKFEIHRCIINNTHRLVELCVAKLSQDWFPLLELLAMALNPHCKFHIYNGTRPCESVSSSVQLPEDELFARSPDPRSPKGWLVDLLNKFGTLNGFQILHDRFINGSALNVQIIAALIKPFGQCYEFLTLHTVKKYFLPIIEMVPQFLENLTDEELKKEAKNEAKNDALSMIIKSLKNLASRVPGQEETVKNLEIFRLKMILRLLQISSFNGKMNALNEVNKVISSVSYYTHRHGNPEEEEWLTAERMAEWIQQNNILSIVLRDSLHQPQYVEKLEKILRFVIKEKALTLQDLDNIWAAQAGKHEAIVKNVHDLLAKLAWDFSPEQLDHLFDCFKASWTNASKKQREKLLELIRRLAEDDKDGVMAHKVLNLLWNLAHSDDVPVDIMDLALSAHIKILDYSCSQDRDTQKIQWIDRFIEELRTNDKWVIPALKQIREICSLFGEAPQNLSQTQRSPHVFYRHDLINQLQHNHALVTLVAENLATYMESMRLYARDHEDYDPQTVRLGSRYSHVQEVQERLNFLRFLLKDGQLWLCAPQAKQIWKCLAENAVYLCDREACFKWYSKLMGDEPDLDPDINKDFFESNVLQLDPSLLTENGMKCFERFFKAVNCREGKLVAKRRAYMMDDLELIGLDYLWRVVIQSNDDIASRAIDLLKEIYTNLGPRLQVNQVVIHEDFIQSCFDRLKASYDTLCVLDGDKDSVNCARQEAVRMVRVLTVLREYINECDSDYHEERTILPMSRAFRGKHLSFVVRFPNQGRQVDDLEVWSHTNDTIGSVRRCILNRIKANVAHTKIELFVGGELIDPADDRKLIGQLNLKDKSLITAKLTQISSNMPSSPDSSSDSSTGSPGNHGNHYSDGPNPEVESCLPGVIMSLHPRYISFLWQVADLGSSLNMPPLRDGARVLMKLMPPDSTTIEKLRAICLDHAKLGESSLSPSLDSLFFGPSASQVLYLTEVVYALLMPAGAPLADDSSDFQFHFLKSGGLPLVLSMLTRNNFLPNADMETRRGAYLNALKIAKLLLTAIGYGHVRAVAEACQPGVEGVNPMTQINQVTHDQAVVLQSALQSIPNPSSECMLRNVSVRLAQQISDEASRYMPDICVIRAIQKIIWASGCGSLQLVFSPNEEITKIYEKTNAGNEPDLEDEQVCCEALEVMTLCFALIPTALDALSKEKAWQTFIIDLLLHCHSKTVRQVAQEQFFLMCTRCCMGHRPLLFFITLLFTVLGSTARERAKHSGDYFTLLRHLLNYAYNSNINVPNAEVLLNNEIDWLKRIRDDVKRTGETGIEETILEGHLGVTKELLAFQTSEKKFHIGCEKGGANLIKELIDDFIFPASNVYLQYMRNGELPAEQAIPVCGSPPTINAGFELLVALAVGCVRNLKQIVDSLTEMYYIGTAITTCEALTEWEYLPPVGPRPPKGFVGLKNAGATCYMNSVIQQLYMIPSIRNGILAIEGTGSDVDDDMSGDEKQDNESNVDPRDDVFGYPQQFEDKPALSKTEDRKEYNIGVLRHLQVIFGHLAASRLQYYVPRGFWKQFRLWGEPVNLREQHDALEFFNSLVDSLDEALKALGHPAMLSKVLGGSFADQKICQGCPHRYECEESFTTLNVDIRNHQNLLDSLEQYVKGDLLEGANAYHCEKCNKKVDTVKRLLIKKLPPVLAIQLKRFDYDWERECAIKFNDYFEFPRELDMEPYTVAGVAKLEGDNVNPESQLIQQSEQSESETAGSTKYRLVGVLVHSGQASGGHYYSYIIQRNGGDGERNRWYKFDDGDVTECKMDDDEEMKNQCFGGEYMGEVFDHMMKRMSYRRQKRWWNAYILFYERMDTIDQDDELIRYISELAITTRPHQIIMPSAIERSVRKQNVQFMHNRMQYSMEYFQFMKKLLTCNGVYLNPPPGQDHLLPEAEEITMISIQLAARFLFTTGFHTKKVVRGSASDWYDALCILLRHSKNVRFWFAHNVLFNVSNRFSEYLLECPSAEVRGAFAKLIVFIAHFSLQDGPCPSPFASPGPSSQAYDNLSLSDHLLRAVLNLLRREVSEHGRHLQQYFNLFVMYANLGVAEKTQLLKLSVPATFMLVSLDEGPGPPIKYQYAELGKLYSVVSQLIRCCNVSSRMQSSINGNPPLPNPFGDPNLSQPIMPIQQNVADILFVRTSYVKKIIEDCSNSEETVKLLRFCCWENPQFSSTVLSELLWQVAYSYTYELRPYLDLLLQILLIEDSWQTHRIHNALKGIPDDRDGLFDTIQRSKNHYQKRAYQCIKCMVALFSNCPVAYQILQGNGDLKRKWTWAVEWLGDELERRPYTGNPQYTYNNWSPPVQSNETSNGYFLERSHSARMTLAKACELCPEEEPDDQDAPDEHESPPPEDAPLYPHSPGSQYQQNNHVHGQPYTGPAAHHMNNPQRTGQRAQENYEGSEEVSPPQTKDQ

Row | Compound | pIC50 (USP9X 0.025 nM) | pIC50 (USP9X […])
1 | O=S(=O)(c1ccc(-n2ccnc2)cc1)N1Cc2cnc(C(O)c3ccccc3)cc2C1 (centres unmarked) [Example 19] | < 4.60 | –
2 | CN1CCC(Oc2cccc(C(O)c3cc4c(cn3)CN(S(=O)(=O)c3ccc(-c5ncco5)cc3)C4)c2)CC1 (single isomer, unassigned) [Example 79] | – | 7.00 to 9.00
3 | CN1CCC(Oc2cccc(C(O)c3cc4c(cn3)CN(S(=O)(=O)c3ccc(-c5ncco5)cc3)C4)c2)CC1 (single isomer, unassigned) [Example 78] | 7.00 to 9.00 | –
4 | O=S(=O)(C1CCN(c2ncco2)CC1)N1Cc2cnc(C(O)c3ccccc3)cc2C1 (centres unmarked) [Example 32, (2-{[1-(1,3-oxazol-2-yl)piperidin-4-yl]sulfonyl}-1H,2H,3H-pyrrolo[3,4-c]pyridine-6-yl)(phenyl)methanol] | < 4.60 | –
5 | O=S(=O)(C1CCN(c2nccs2)CC1)N1Cc2cnc(C(O)c3ccccc3)cc2C1 (centres unmarked) [Example 24] | < 4.60 | –
